Peptide text beside a SMILES is read from it.
Assays:
[1] = target: IL-23 induced IL-22 production in human PBMCs (Homo sapiens, UniProt Q5VWK5); experiment: IL-22 production induced by IL-23 in human PBMC; assay type: cell-based; settings: IL-23 2 ng/ml, ELISA; read-out: IC50, inhibition of IL-22 production
Protocol: Peripheral blood mononuclear cells (PBMCs) were isolated from heparinized venous whole blood from healthy donors by density gradient centrifugation using Ficoll-Paque (Sigma-Aldrich, St Louis, Mo., USA). Human venous blood was purchased as anonymous buffy coats from the New Jersey Blood Transfusion Service. After isolation, the PBMCs were cultured in RPMI-1640 medium (Invitrogen-Gibco, Carlsbad, Calif.) supplemented with 10% heat-inactivated fetal bovine serum (Invitrogen-Gibco) and 1 mM of glutamine (Invitrogen-Gibco) at 37° C.
Isolated PBMCs (5×10^6 cells/ml) were cultured in the presence of […] and IL-18 (20 ng/ml). A serial dilution of IL-23 (from 0-2 ng/ml) was added to the cell culture for 30 hours. We measured the production of IL-22 by ELISA (Catalog #88-7522, eBioscience, San Diego, Calif.) according to manufacturer's protocol).
In order to measure the IC50 value of cyclic peptide no. 2HT AA (SEQ ID NO: 177), the cells were treated with a fixed amount of IL-23 cytokine (2 ng/ml) in the presence of a serial dilution of cyclic peptide no. 2HT AA (SEQ ID NO: 177). The cyclic peptide (SEQ ID NO: 177) inhibits IL-23 cytokine in PBMCs in a dose-dependent manner. […] Thus, the cyclic peptide no.

[2] = target: T1, mouse IL-23R (Mus musculus, UniProt Q8K4B4); experiment: Competitive mouse ELISA, mouse IL-23 binding to mouse IL-23R; settings: mouse IL-23 / mouse IL-23R-Fc; read-out: IC50, Competitive ELISA in mouse system
T1 sequence (Q8K4B4 24-644): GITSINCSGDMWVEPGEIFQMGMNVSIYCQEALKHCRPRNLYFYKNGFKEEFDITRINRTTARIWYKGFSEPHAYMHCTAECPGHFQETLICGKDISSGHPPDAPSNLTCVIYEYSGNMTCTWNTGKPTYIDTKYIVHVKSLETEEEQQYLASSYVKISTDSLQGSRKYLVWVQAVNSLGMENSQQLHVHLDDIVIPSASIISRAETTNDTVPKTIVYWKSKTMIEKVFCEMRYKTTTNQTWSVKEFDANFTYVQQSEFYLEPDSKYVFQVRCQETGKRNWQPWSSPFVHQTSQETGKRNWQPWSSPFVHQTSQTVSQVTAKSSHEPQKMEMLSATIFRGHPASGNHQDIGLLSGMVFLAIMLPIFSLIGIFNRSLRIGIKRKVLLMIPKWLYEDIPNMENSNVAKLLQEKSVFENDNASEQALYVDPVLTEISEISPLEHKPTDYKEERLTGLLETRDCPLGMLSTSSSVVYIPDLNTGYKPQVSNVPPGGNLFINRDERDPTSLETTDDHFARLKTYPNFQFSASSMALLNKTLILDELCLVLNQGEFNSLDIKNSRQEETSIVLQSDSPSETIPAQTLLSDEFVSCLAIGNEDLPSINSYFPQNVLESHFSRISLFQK
Text: In this study, we tested if the cyclic polypeptide no. 23.15, cyclic polypeptide no. 23.19 and the isolated polypeptide 23.15-Fc fusion protein could inhibit binding of mouse IL-23 to mouse IL-23R. Mouse IL-23 (p19 Gene Accession #: NM_031252; p40 Gene Accession #: NM_008352), the sequence of which is incorporated herein by reference. Mouse IL-23R (Gene Accession #: NM_144548), the sequence of which is incorporated herein by reference. To do so, we performed the Competitive ELISA.
FIG. 46 is a schematic depiction of the Competitive ELISA in mouse. Recombinant mouse IL-23R-Fc (2 μg/ml) was coated onto microtiter plates as a capture reagent. Mouse IL-23 and polypeptide or isolated peptide-Fc fusion protein were added to compete for binding to the immobilized mouse IL-23R-Fc. Mouse IL-23 that bound to mouse IL-23R-Fc was detected using biotinylated anti-p40 antibody (1:250). The bound anti-p40 antibody was detected using streptavidin-horseradish peroxidase (HRP) (1:500) and 100 μl/well of a tetramethylbenzidine (TMB) substrate was added to measure peroxidase activity. The color was measured at optical density (OD) 450nm. The color intensity was directly proportional to the amount of the bound mouse IL-23 protein.
The isolated polypeptide no. 23.15-Fc fusion protein, cyclic polypeptide no. 23.19 and polypeptide no. […] The IC50 values were calculated.

Sequence of IL-23 induced IL-22 production in human PBMCs (Q5VWK5 24-629 limits assumed): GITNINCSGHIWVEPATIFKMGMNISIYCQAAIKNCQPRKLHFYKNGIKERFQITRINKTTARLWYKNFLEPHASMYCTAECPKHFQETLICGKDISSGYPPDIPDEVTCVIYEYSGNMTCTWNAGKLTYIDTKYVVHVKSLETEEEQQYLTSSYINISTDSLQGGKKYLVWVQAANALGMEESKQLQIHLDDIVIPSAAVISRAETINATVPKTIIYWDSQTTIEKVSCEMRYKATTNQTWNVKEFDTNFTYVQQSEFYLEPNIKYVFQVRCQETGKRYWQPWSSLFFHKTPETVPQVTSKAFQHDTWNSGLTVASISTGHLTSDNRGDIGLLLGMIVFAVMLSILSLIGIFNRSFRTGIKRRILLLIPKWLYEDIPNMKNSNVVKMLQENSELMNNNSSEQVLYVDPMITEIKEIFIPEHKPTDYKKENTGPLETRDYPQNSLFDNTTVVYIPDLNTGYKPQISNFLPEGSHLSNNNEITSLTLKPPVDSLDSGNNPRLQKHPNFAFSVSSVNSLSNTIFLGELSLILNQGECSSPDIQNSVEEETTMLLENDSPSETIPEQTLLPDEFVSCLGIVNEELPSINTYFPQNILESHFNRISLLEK

IC50 [1] | IC50 [2] | Structure (SMILES)
0.337 µM |  | CSCC[C@@H]1NC(=O)[C@H](CCCCN)NC(=O)[C@H](C)NC(=O)[C@H](C)NC(=O)[C@H](CS)NC(=O)[C@H](CC(N)=O)NC(=O)[C@H](CCCCN)NC(=O)[C@H](CC(C)C)NC(=O)[C@H](Cc2c[nH]c3ccccc23)NC(=O)[C@H](Cc2ccc(O)cc2)NC(=O)[C@H](CC(=O)O)NC(=O)[C@H](C(C)C)NC(=O)[C@H](Cc2c[nH]c3ccccc23)NC(=O)[C@H]([C@@H](C)O)NC1=O [2HT AA] (cyclo(AAKMTWVDYWLKNC))
 | 12.5 µM | CSCC[C@@H]1NC(=O)[C@H](C)NC(=O)[C@@H](N)CSSC[C@@H](C(=O)O)NC(=O)[C@H](CCCNC(=N)N)NC(=O)CNC(=O)[C@H](Cc2ccc(O)cc2)NC(=O)[C@H](CC(C)C)NC(=O)[C@H](Cc2c[nH]c3ccccc23)NC(=O)[C@H](Cc2ccc(O)cc2)NC(=O)[C@H](CC(=O)O)NC(=O)[C@H](CCC(N)=O)NC(=O)[C@H](Cc2c[nH]c3ccccc23)NC(=O)[C@H]([C@@H](C)O)NC1=O [23.19]

Source: patent US9605027B2, “Polypeptides that bound to IL-23 receptor and inhibit binding of IL-23 and cell signaling thereof” (Medical Diagnostic Laboratories, LLC, priority 2011, dated 2017)
